PMC7600788, “Sequence Permutation Generates Peptides with Different Antimicrobial and Antibiofilm Activities” (Pharmaceuticals, 2020)
No end group written: not given here.

Columns and labels:
[1] = test system: E. faecium VRE; assay type: cell-based; settings: VRE
Procedure: (§1) The antimicrobial activity spectrum of the WW peptide series was performed on a panel of Gram-positive and -negative bacteria using the standard broth micro-dilution method with minor modifications as described. […] There was a small change in the case of Pseudomonas aeruginosa and Acinetobacter baumannii up to two-fold. Four-fold changes were found for Staphylococcus aureus, Staphylococcus epidermidis, Escherichia coli, and Bacillus subtilis. However, we observed over eight-fold MIC changes for Klebsiella pneumoniae and vancomycin-resistant enterococcus (VRE). […] We also observed more than eight-fold changes in minimal bacterial killing concentrations.
(§2) The antibacterial activity of peptides was evaluated using a standard broth microdilution protocol with minor modifications as previously described. In brief, logarithmic phase bacterial cultures (i.e., optical density at 600 nm ≈ 0.5) were diluted to OD600~0.001 and partitioned into a 96-well polystyrene microplate at 90 μL per well. After treatment with 10 μL of peptide solutions two-fold diluted to various concentrations, microplates were incubated at 37 °C overnight and read on a ChroMate 4300 Microplate Reader at 630 nm (GMI, Ramsey, MN). […] Minimal bactericidal concentration (MBC) was determined by plating the clear wells at MIC or above. The peptide concentration that caused no bacterial growth on the petri dish is MBC.

[2] = test system: E. coli ATCC 25922; assay type: cell-based, Escherichia coli; settings: ATCC 25922
Procedure: (§3) To gain additional insight, we also compared the effects of physiological saline and human serum on the antibacterial activities of WW291-WW298 using both E. coli and S. aureus (Table 3). In our assays, salts and serum were present during the entire course of the experiment. […] Thus, WW295 and WW298 stand out in terms of activity robustness (bold in Table 3).
as §2

[3] = test system: human keratinocytes (HaCaT); test: MTS cytotoxicity assay; assay type: cell-based; settings: serum free media, one hour treatment
Procedure: (§4) Peptides were assayed for potential in vitro toxicity against human keratinocytes (HaCaT) and THP-1 cells as previously described. THP-1 monocytes were differentiated into macrophages by adding 30 ng/mL of phorbol 12-myristate 13-acetate (PMA; Sigma-Aldrich) to RPMI 1640 supplemented with 10% fetal calf serum culture (FCS) medium for 16 h. Briefly, cells were seeded at a density of 3 × 10^4 per well in a tissue culture 96-well plate in DMEM/RPMI supplemented with 10% fetal bovine serum (FBS), and incubated at 37 °C in a 5% CO2 atmosphere for 24 h. African green monkey kidney Vero E6 cells were cultivated in EMEM in the same manner. Before antimicrobial treatment, wells were replaced with serum free media and treated with peptides at different concentrations for one hour. After incubation, the cells were washed and incubated with 100 μL of DMEM media containing 20 μL of 3-(4,5-dimethylthiazol-2-yl)-5-(3-carboxymethoxyphenyl)-2-(4-sulfophenyl)-2H-tetrazolium (MTS) reagent for two hours at 37 °C. The treatment time was one hour in the case of Vero E6 cells. Absorbance readings at 492 nm were taken using a ChroMate microplate reader (GMI, Ramsey, MN, USA).

[4] = test system: PMA differentiated THP-1 cells; test: MTS cytotoxicity assay; assay type: cell-based; settings: PMA differentiated THP-1, serum free media, one hour treatment
Procedure: as §4

[5] = test system: E. coli K12; assay type: cell-based, Escherichia coli; settings: K12
Procedure: as §1, §2

[6] = test system: human red blood cells; test: Hemolytic assay; assay type: cell-based; settings: red cells of human
Procedure: (§5) Hemolytic assays of peptides were performed as previously described. Briefly, human red blood cells (hRBCs) obtained from UNMC Blood Bank, or chicken or porcine blood cells purchased from commercial sources as previously described, were washed three times with phosphate buffer saline (PBS) and diluted to a 2% solution (V/v). After peptide treatment, incubation at 37 °C for one hour, and centrifugation at 13,000 rpm, aliquots of the supernatant were carefully transferred to a fresh 96-well microplate. The amount of hemoglobin released was measured at 545 nm. The percent lysis was calculated by assuming 100% release when human blood cells were treated with 2% Triton X-100, and 0% release when incubated with PBS buffer. The peptide concentration that caused 50% lysis of hRBCs is defined as HC50.

[7] = test system: chicken red blood cells; test: Hemolytic assay; assay type: cell-based
Procedure: as §5

[8] = test system: Pig RBC; test: Hemolytic assay; assay type: cell-based
Procedure: as §5

[9] = test system: P. aeruginosa PAO1; assay type: cell-based, Pseudomonas aeruginosa; settings: PAO1
Procedure: as §1, §2

[10] = test system: S. aureus Mu50; assay type: cell-based, Staphylococcus aureus; settings: Mu50
Procedure: as §1, §2

[11] = test system: monkey kidney Vero E6 cells; assay type: cell-based
Procedure: as §4, with “The treatment time was one hour in the case of Vero E6 cells.” left out

[12] = test system: S. aureus USA300; assay type: cell-based, Staphylococcus aureus; settings: USA300
Procedure: as §2

[13] = test system: A. baumannii B28-16; assay type: cell-based, Acinetobacter baumannii; settings: B28-16
Procedure: as §1, §2

[14] = test system: B. subtilis 167; assay type: cell-based, Bacillus subtilis; settings: 167
Procedure: as §1, §2

[15] = test system: S. aureus USA300 LAC; assay type: cell-based, Staphylococcus aureus; settings: USA300
Procedure: as §3, §2

Sequence	Minimal Inhibitory Concentration (MIC), VRE [1]	MIC, +150 mM NaCl [2]	MIC, +10% Human Serum [2]	MIC, TSB [2]	HaCaT, concentration that caused 50% cell death (LC50) [3]	THP-1, concentration that caused 50% cell death (LC50) [4]	Minimal Inhibitory Concentration (MIC), EC [5]	Human RBC, concentration that caused 50% red blood cell lysis (HC50) [6]	Chicken RBC, concentration that caused 50% red blood cell lysis (HC50) [7]	Pig RBC, concentration that caused 50% red blood cell lysis (HC50) [8]	Minimal Inhibitory Concentration (MIC), PA [9]	Minimal Inhibitory Concentration (MIC), SA [10]	Vero Cells, concentration that caused 50% cell death (LC50) [11]	MBC, USA300 [12]	Minimal Inhibitory Concentration (MIC), AB [13]	Minimal Inhibitory Concentration (MIC), BS [14]	MIC, +150 mM NaCl [15]	MIC, +10% Human Serum [15]	MIC, TSB [15]
WWWWLRKI [WW298]	12.5 µM	12.5 µM	>25 µM	12.5 µM	80 µM	30 µM	12.5 µM	52 µM	70 µM	37 µM	50 µM	3.1 µM	100 µM	3.1 µM	6.25 to 12.5 µM	6.25 to 12.5 µM	1.6 µM	12.5 to 25 µM	1.6 µM
WWLRKIWW [WW292]	>50 µM	>25 µM	>25 µM	12.5 µM	>100 µM	>100 µM	25 µM	175 µM	>100 µM	>100 µM	25 µM	12.5 µM	>100 µM	>25 µM	12.5 µM	12.5 µM	6.2 µM	>25 µM	6.2 µM
KIWWWWLR [WW296]	25 µM	25 µM	>25 µM	3.1 to 6.2 µM	100 µM	35 µM	6.2 to 12.5 µM	103 µM	50 µM	>100 µM	50 µM	3.1 µM	>100 µM	6.2 µM	12.5 µM	12.5 µM	1.6 µM		1.6 µM
LRKIWWWW [WW294]	25 µM	25 µM	>25 µM	12.5 µM	>100 µM	>100 µM	12.5 µM	143 µM	>100 µM	>100 µM	50 µM	12.5 µM	>100 µM	25 µM	12.5 µM	25 µM	6.2 µM	25 µM	6.2 µM
